In ChEMBL document CHEMBL1154015, “Structural and theoretical studies of [6-bromo-1-(4-fluorophenylmethyl)-4(1H)-quinolinon-3-yl)]-4-hydroxy-2-oxo-3-butenoïc acid as HIV-1 integrase inhibitor” (Bioorg Med Chem Lett, 2009):

Experiments:
[1] = system: Human immunodeficiency virus 1; experiment: Antiviral activity against HIV1 NL4-3 infected in human TZM-bl cells treated 4 hrs before infection measured after 48 hrs postinfection by beta-D-galactopyranoside assay; type: functional, organism-based; conditions: Human immunodeficiency virus 1, NL4-3, TZM-bl
[2] = target: T1, Human immunodeficiency virus type 1 integrase (Human immunodeficiency virus 1, UniProt Q7ZJM1); experiment: Inhibition of HIV1 integrase strand transfer activity expressed in Escherichia coli BL21 (DE3) by gel based assay in presence of magnesium
[3] = Selectivity index, ratio of CC50 for human TZM-bl cells to EC50 for HIV1 NL4-3; type: toxicity, cell-based; conditions: read-out: Ratio CC50/EC50
[4] = Cytotoxicity against HIV1 NL4-3 infected human TZM-bl cells assessed as reduction in cell viability after 3 days by WST1 assay; type: cell-based; conditions: HIV1 NL4-3 infected TZM-bl cells
[5] = target: T1, Human immunodeficiency virus type 1 integrase; experiment: Inhibition of HIV1 integrase 3'-processing activity expressed in Escherichia coli BL21 (DE3) by gel based assay in presence of magnesium

T1 sequence (Q7ZJM1 whole entry): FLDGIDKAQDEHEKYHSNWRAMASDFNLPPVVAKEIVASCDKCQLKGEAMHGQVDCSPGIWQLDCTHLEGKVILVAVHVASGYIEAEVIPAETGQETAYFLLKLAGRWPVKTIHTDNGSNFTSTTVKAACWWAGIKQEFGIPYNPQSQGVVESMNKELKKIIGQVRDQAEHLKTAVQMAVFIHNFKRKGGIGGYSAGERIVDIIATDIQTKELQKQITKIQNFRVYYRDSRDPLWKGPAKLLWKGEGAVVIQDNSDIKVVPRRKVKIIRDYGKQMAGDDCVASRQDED

CCOC(=O)C(=O)CC(=O)c1cn(Cc2ccc(F)cc2)c2ccc(Br)cc2c1=O
EC50 [1]: 17 µM
IC50 [2]: 0.12 µM
selectivity ratio [3]: > 59
CC50 at 72 h [4]: > 1000 µM
IC50 [5]: 78 µM

O=C(O)C(=O)CC(=O)c1cn(Cc2ccc(F)cc2)c2ccc(Br)cc2c1=O
EC50 [1]: 4 µM
IC50 [2]: 0.03 µM
selectivity ratio [3]: > 250
CC50 at 72 h [4]: > 1000 µM
IC50 [5]: 1.6 µM
